Drawing on patent publication US11319322B2, “Substituted aryl ether compound, preparation method thereof, pharmaceutical composition and use thereof” (Xiamen University, priority 2017, dated 2022), this text covers GI50 for 37 compounds.

SMILES strings stand for the structures.

One test has as its target T1, CCDC6-RET-BaF3 (Homo sapiens, UniProt P07949).
T1 construct: fused on or other part: Q16204 (Coiled-coil domain-containing protein 6)
The experiment in a line: Growth inhibition of CCDC6-RET-BaF3 cells stably transfected with kinase (MTS). It counts as cell-based. As to conditions: 48 h, read-out: CCDC6-RET (IC50/nM). As for the experimental part: (§1) Growth inhibitory activity of compounds on cell lines stably transfected with kinase
(§2) The activity of compounds against kinase RET is evaluated by their effect of inhibiting growth of cell lines stably transfected with kinase CCDC6-RET-BaF3, KIF5B-RET-BaF3, and wild-type BaF3 (Proc. Natl. Acad. Sci. USA., 2006, 103, 3153-8.). The growth of the cell lines stably transfected with kinase CCDC6-RET-BaF3, KIF5B-RET-BaF3 depends on their kinase activity. If a compound can inhibit the activity of the kinase RET per se or the activity of the RET signaling pathway, the compound can inhibit the growth of BaF3 cells stably transfected with kinase. […] Therefore, a larger ratio between IC50 of a compound to wild-type BaF3 and IC50 of the compound to the cell lines stably transfected with kinase CCDC6-RET-BaF3, KIF5B-RET-BaF3 indicates better targeting.
(§3) The specific test method is given as follows:
(§4) 1) Medium: DMEM (Dulbecco's modified eagle medium) or RPMI 1640 (containing 10% fetal bovine serum, 100 μg/mL ampicillin, 100 μg/mL streptomycin).
(§5) 2) Reagents: MTS reaction solution (containing 2 mg/mL of MTS [3-(4,5-dimethylthiazol-2-yl)-5-(3-carboxymethoxyphenyl)-2-(4-sulfophenyl)-2H-tetrazolium, inner Salt]; 100 μg/mL PES (phenazine […])).
(§6) 3) Compound test: cells stably transfected with kinase (CCDC6-RET-BaF3, KIF5B-RET-BaF3) or wild-type BaF3 cells (2×10^4 cells/well) were incubated into a 96-well culture plate, the volume of cell culture fluid was 90 μL, and then 10 μL of the compound at each gradient concentration was added (the highest concentration was 10 μM, which was diluted stepwise by ⅓, and 8 concentration points were set in total; the system contained 0.1% DMSO (dimethyl sulfoxide)). The cell plate with uniformly mixed compound was cultured in a cell culture incubator (37° C.; 5% CO2) for 48 h, then 20 μL of MTS reaction solution was added, uniformly mixed and incubated in the cell culture incubator (37° C.; 5% CO2) for 1-4 hr, OD values at 490 nm were measured by a microplate reader (VARIOSKAN FLASH, Thermo). Three parallels were set in each group of experiments, with 0.1% (a final concentration) DMSO as a negative control, and a medium without cells or compounds as a blank control. The cell growth inhibition rate was calculated by the following formula: Cell growth inhibition rate %=1−(ODexperimental group−ODblank group)/(ODnegative group−ODblank group)×100%
(§7) 4) IC50 calculation: The semi-inhibitory concentration of the compound acting on cell growth was calculated using GradPad Prism 5 software according to the measured cell growth inhibition rate.

Another test has as its target T2, KIF5B-RET-BaF3 (Homo sapiens, UniProt P07949).
T2 construct: fused on or other part: P33176 (Kinesin-1 heavy chain)
Nature of the test: Growth inhibition of KIF5B-RET-BaF3 cells stably transfected with kinase (MTS). The format is cell-based. As to conditions: 48 h, read-out: KIF5B-RET (IC50/nM). As for the experimental part: as §1, §2, §3, §4, §5, §6, §7

T2 sequence (P07949 whole entry, change not shown, the tested form may be a part): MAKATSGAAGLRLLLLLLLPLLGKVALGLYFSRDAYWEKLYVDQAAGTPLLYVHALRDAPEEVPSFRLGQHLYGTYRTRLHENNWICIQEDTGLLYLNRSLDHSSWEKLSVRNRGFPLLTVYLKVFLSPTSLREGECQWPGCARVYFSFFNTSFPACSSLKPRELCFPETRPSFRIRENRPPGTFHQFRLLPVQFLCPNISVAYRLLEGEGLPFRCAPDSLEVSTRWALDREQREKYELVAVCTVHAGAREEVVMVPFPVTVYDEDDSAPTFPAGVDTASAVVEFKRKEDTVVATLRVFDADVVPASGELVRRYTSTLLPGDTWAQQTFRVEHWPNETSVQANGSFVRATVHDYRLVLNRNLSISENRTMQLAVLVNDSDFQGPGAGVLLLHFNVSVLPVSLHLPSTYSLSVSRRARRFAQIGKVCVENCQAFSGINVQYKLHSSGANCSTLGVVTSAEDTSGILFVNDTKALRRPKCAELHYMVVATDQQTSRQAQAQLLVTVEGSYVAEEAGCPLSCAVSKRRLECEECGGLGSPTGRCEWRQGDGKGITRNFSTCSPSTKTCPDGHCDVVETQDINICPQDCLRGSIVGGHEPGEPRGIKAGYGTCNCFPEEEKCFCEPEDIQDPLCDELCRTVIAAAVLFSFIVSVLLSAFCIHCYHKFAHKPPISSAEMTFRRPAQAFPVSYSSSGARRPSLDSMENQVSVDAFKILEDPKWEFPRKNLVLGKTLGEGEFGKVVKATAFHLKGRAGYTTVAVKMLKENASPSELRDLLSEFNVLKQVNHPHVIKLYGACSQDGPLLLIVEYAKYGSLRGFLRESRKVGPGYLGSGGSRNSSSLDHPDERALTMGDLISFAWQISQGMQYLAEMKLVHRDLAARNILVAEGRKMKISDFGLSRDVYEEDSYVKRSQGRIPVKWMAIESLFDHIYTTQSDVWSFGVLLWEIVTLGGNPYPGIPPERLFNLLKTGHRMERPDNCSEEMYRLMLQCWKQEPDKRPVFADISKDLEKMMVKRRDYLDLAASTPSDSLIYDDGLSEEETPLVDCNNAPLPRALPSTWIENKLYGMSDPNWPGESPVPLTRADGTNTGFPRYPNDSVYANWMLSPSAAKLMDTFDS
T1 sequence (P07949 whole entry, change not shown, the tested form may be a part): as above

For `Cc1ccc(C(=O)Nc2cc(C(F)(F)F)cc(C(F)(F)F)c2)cc1Oc1nc(-c2cccnc2)nc2c1cnn2C` [II-v-1], the values for the GI50 at CCDC6-RET-BaF3 and at KIF5B-RET-BaF3 were 7230 nM and 7940 nM, respectively.
Consider `Cc1ccc(Oc2cc(-c3cccnc3)nc3sccc23)cc1NC(=O)c1ccc(CN2CCN(C)CC2)c(C(F)(F)F)c1` [VII-j-1], for which the GI50 came out at 811 nM at CCDC6-RET-BaF3 and 1280 nM at KIF5B-RET-BaF3.
In the case of `CCC(=O)NC1CCN(c2ccc(NC(=O)c3ccc(C)c(Oc4nc(-c5cccnc5)nc5ccn(C)c45)c3)cc2C(F)(F)F)CC1` [III-v-7], the GI50 on CCDC6-RET-BaF3 was 148000 nM.
`CN1CCN(Cc2ccc(NC(=O)c3cc(Oc4nc(-c5ccoc5)nc5c4ncn5C)ccc3Cl)cc2C(F)(F)F)CC1` [I-o-10]: the results for the GI50 on CCDC6-RET-BaF3 and at KIF5B-RET-BaF3 were 1370 nM and 1910 nM, respectively.
Turning to `Cc1ccc(C(=O)Nc2ccc(CN3CCN(C)CC3)c(C(F)(F)F)c2)cc1Oc1nc(-c2ccc(O)cc2)nc2c1cnn2C` [II-m-8], the results for the GI50 on CCDC6-RET-BaF3 and at KIF5B-RET-BaF3 were 166 nM and 56.9 nM, respectively.
The like results for `Cc1ccc(Oc2nc(-c3cccc(N)c3)nc3nn(C)cc23)cc1C(=O)Nc1ccc(CN2CCN(C)CC2)c(C(F)(F)F)c1` [IV-n-8] were, in that order, 2090 nM and 1620 nM.
Take `CC(=O)NC1CCN(c2ccc(NC(=O)c3ccc(C)c(Oc4nc(-c5ccncc5)nc5ccn(C)c45)c3)cc2C(F)(F)F)CC1` [III-v-9]: the GI50 at CCDC6-RET-BaF3 was determined as 4210 nM; at KIF5B-RET-BaF3, 1750 nM.
On to `Cc1ccc(NC(=O)c2ccc(CN3CCN(C)CC3)c(C(F)(F)F)c2)cc1Oc1nc(-c2ccncc2)nc2c1cnn2C` [II-i-2], for which the GI50 at CCDC6-RET-BaF3 was 617 nM; at KIF5B-RET-BaF3, 469 nM.
For `Cc1ccc(C(=O)Nc2ccc(CN3CCN(C)CC3)c(C(F)(F)F)c2)cc1Oc1nc(-c2ccncc2)nc2c1ncn2C` [I-m-3], the GI50 was 447 nM at CCDC6-RET-BaF3 and 1050 nM on KIF5B-RET-BaF3.
Turning to `Cc1ccc(Oc2nc(-c3ccncc3)nc3c2ncn3C)cc1NC(=O)c1ccc(CN2CCN(C)CC2)c(C(F)(F)F)c1` [I-j-1], the values for the GI50 on CCDC6-RET-BaF3 and at KIF5B-RET-BaF3 were 0.741 nM and 2.74 nM, respectively.
In the case of `Cc1ccc(Oc2nc(-c3ccncc3)nc3c2ncn3C(C)C)cc1C(=O)Nc1ccc(CN2CCN(C)CC2)c(C(F)(F)F)c1` [I-n-14], the GI50 at CCDC6-RET-BaF3 amounted to 163 nM; at KIF5B-RET-BaF3, 47 nM.
Consider `Cc1ccc(NC(=O)c2ccc(CN3CCN(C)CC3)c(C(F)(F)F)c2)cc1Oc1nc(-c2ccncc2)nc2ccn(C)c12` [III-i-4], for which the GI50 on CCDC6-RET-BaF3 worked out at 2020 nM; at KIF5B-RET-BaF3 it was 1330 nM.
Consider `Cc1ccc(Oc2nc(-c3ccncc3)nc3c2ncn3C)cc1C(=O)Nc1cccc(C(F)(F)F)c1` [I-f-2], for which the GI50 was found to be 4850 nM on CCDC6-RET-BaF3 and 8120 nM on KIF5B-RET-BaF3.
Consider `CN1CCN(Cc2ccc(NC(=O)c3cc(Oc4nc(-c5cccc(N)c5)nc5nn(C)cc45)ccc3Cl)cc2C(F)(F)F)CC1` [IV-o-8], for which the GI50 stood at 172 nM at CCDC6-RET-BaF3 and 152 nM at KIF5B-RET-BaF3.
Regarding `Cc1ccc(C(=O)Nc2ccc(CN3CCN(C)CC3)c(C(F)(F)F)c2)cc1Oc1nc(-c2ccncc2)nc2cc[nH]c12` [III-m-2], the GI50 was determined as 3630 nM at CCDC6-RET-BaF3 and 1310 nM at KIF5B-RET-BaF3.
On to `Cc1ccc(Oc2nc(-c3cccnc3)nc3cc[nH]c23)cc1NC(=O)c1ccc(CN2CCN(C)CC2)c(C(F)(F)F)c1` [III-j-1], for which the results for the GI50 on CCDC6-RET-BaF3 and on KIF5B-RET-BaF3 were 5940 nM and 3250 nM, respectively.
Take `CN1CCN(Cc2ccc(NC(=O)c3cc(Oc4nc(-c5ccoc5)nc5nn(C)cc45)ccc3Cl)cc2C(F)(F)F)CC1` [IV-o-10]: the figures for the GI50 at CCDC6-RET-BaF3 and on KIF5B-RET-BaF3 were 4290 nM and 3760 nM, respectively.
Regarding `CN1CCN(Cc2ccc(NC(=O)c3cc(Oc4nc(-c5cccc(N)c5)nc5c4ncn5C)ccc3Cl)cc2C(F)(F)F)CC1` [I-o-8], the figures for the GI50 at CCDC6-RET-BaF3 and on KIF5B-RET-BaF3 were 1590 nM and 1490 nM, respectively.
In the case of `CN1CCN(Cc2ccc(NC(=O)c3cc(Oc4nc(-c5ccccc5)nc5nn(C)cc45)ccc3Cl)cc2C(F)(F)F)CC1` [IV-o-3], the GI50 on CCDC6-RET-BaF3 amounted to 4310 nM; on KIF5B-RET-BaF3 it was 4180 nM.
As for `CN1CCN(Cc2cc(NC(=O)c3cccc(Oc4nc(-c5ccncc5)nc5c4cnn5C)c3)cc(C(F)(F)F)c2)CC1` [II-p-2], the GI50 on CCDC6-RET-BaF3 came to 458 nM; on KIF5B-RET-BaF3 it was 521 nM.
Take `Cc1ccc(C(=O)Nc2ccc(CN3CCN(C)CC3)c(C(F)(F)F)c2)cc1Oc1nc(Nc2ccccc2)nc2c1cnn2C` [II-m-12]: the GI50 at CCDC6-RET-BaF3 is 123 nM; at KIF5B-RET-BaF3 it was 69.7 nM.
With `Cc1ccc(C(=O)Nc2ccc(CN3CCN(C)CC3)c(C(F)(F)F)c2)cc1Oc1nc(-c2ccccc2)nc2c1cnn2C` [II-m-3], the values for the GI50 on CCDC6-RET-BaF3 and at KIF5B-RET-BaF3 were 348 nM and 97.7 nM, respectively.
Consider `Cc1ccc(Oc2ncnc3c2ncn3C)cc1C(=O)Nc1ccc(CN2CCN(C)CC2)c(C(F)(F)F)c1` [I-n-13], for which the values for the GI50 at CCDC6-RET-BaF3 and on KIF5B-RET-BaF3 were 3010 nM and 4850 nM, respectively.
Take `CC(=O)NCC1CCN(c2ccc(NC(=O)c3ccc(C)c(Oc4nc(-c5cccnc5)nc5c4cnn5C)c3)cc2C(F)(F)F)CC1` [II-v-10]: the values for the GI50 at CCDC6-RET-BaF3 and at KIF5B-RET-BaF3 were 492 nM and 463 nM, respectively.
Regarding `CCS(=O)(=O)NC1CCN(c2ccc(NC(=O)c3ccc(C)c(Oc4nc(-c5cccnc5)nc5c4cnn5C)c3)cc2C(F)(F)F)CC1` [II-v-14], the GI50 at CCDC6-RET-BaF3 turned out to be 73.9 nM; on KIF5B-RET-BaF3, 69.3 nM.
Consider `CCC(=O)NC1CCN(c2ccc(NC(=O)c3ccc(C)c(Oc4nc(-c5cccnc5)nc5c4cnn5C)c3)cc2C(F)(F)F)CC1` [II-v-12], for which the GI50 came to 364 nM on CCDC6-RET-BaF3 and 118 nM on KIF5B-RET-BaF3.
For the compound `Cc1ccc(Oc2cc(-c3ccncc3)nc3c2ccn3C)cc1C(=O)Nc1ccc(CN2CCN(C)CC2)c(C(F)(F)F)c1` [V-n-16], the GI50 on CCDC6-RET-BaF3 turned out to be 472 nM; at KIF5B-RET-BaF3 it was 388 nM.
Regarding `Cc1ccc(C(=O)Nc2ccc(CN3CCN(C)CC3)c(C(F)(F)F)c2)cc1Oc1nc(-c2ccc(Cl)cc2)nc2c1cnn2C` [II-m-6], the results for the GI50 at CCDC6-RET-BaF3 and at KIF5B-RET-BaF3 were 696 nM and 114 nM, respectively.
On to `Cc1ccc(Oc2nc(-c3ccncc3)nc3c2cnn3C)cc1NC(=O)c1ccc(CN2CCN(C)CC2)c(C(F)(F)F)c1` [II-j-2], for which, at CCDC6-RET-BaF3, the GI50 is 13.1 nM.
For the compound `CCC(=O)NCC1CCN(c2ccc(NC(=O)c3ccc(C)c(Oc4nc(-c5cccnc5)nc5ccn(C)c45)c3)cc2C(F)(F)F)CC1` [III-v-4], at CCDC6-RET-BaF3, the GI50 is below 4 nM.
On the same count and under the same terms, with `CCS(=O)(=O)NC1CCN(c2ccc(NC(=O)c3ccc(C)c(Oc4nc(-c5cccnc5)nc5ccn(C)c45)c3)cc2C(F)(F)F)CC1` [III-v-10] the figure was below 4 nM.
Consider `CCC(=O)NCC1CCN(c2ccc(NC(=O)c3ccc(C)c(Oc4nc(-c5ccncc5)nc5cc[nH]c45)c3)cc2C(F)(F)F)CC1` [III-v-13], for which the GI50 at CCDC6-RET-BaF3 was 18300 nM.
In the case of `CCC(=O)NCC1CCN(c2ccc(NC(=O)c3ccc(C)c(Oc4nc(-c5cccnc5)nc5ccn(C)c45)c3)cc2C(F)(F)F)CC1` [III-v-5], the GI50 on CCDC6-RET-BaF3 was below 4 nM.
Turning to `CC(=O)NCC1CCN(c2ccc(NC(=O)c3ccc(C)c(Oc4nc(-c5ccncc5)nc5ccn(C)c45)c3)cc2C(F)(F)F)CC1` [III-v-3], on CCDC6-RET-BaF3, the GI50 came to 23800 nM.
As to `CC(=O)NC1CCN(c2ccc(NC(=O)c3ccc(C)c(Oc4nc(-c5cccnc5)nc5ccn(C)c45)c3)cc2C(F)(F)F)CC1` [III-v-2], the GI50 on CCDC6-RET-BaF3 was below 4 nM.
On the same count and under the same terms, the value for `CCn1ncc2c(Oc3cc(C(=O)Nc4ccc(CN5CCN(C)CC5)c(C(F)(F)F)c4)ccc3C)nc(-c3ccncc3)nc21` [II-m-22] was above 10000 nM; that for `CC(=O)NCC1CCN(c2ccc(NC(=O)c3ccc(C)c(Oc4nc(-c5cccnc5)nc5ccn(C)c45)c3)cc2C(F)(F)F)CC1` [III-v-6] was below 4 nM.
